Data: patent publication US20150238637A1, “Blood-brain Barrier Epitopes and Uses Thereof” (NATIONAL RESEARCH COUNCIL OF CANADA, priority 2005, published 2015)

Experiments:
HCEC monolayers = assay: Transport across the in vitro blood brain barrier model; assay type: cell-based, human; conditions: for effect on FC5 transport across the in vitro BBB model: 30 minutes preincubation
Protocol: HCEC (80,000 cells/membrane) were seeded on a 0.5% gelatin coated Falcon tissue culture inserts (pore size-1 μm; surface area 0.83 cm^2) in 1 ml of growth medium. The bottom chamber of the insert assembly contained 2 ml of growth medium supplemented with the fetal human astrocyte-conditioned medium in a 1:1 (v/v) ratio (Muruganandam et al., 1997).
Transport studies were performed 7 days post-seeding as described previously (Muruganandam et al., 1997; Muruganandam et al., 2002). Filter inserts were rinsed with transport buffer [phosphate buffered saline (PBS) containing 5 mM glucose, 5 mM MgCl2, 10 mM HEPES, 0.05% bovine serum albumin (BSA), pH 7.4] and allowed to equilibrate at 37° C. for 30 minutes. Experiments were initiated by adding 10 μg/ml FC5 to either apical or basolateral side of inserts containing either 0.5% gelatin-coated inserts without cells, control HCEC or HCEC pre-exposed to various pharmacological modulators for 30 min. Transport studies were conducted at 37° C. with plates positioned on a rotating platform stirring at 30-40 rpm. Aliquots (100 μl) were collected from the opposite chamber at various time intervals (5, 15, 30, 60, 90 minutes) and replaced with fresh buffer. The amount of FC5 transported across empty inserts or HCEC monolayers was determined by enzyme linked immunosorbent assay (ELISA) (see below). To control for HCEC membrane integrity and to estimate paracellular diffusion, the apical-to-basolateral and basolateral-to-apical clearance rates of [^14C]-sucrose were determined and calculated essentially as described previously (Muruganandam et al., 2002; Garberg et al., 2005) across the same monolayers used for FC5 transport studies. Sample-associated radioactivity in 50 μl aliquots was measured using a Mircobeta Trilux liquid scintillation counter (Wallac, Finland).
Clearance was calculated as Cl (ml)=CA/CI×VA, where CI is the initial tracer or sdAb concentration in the donor chamber, CA is the tracer or sdAb concentration in the accepter chamber, and VA is the volume of the acceptor chamber. […] The effects of pharmacological agents on FC5 transmigration was subsequently assessed at 30 min.
To measure the amount of FC5 transmigrated across the in vitro BBB model, 50 μl aliquots collected from the appropriate compartment were immobilized overnight at room temperature in a HisGrab nickel coated 96-well plate (Pierce). After blocking the plates with 2% BSA for 2 hours at room temperature, anti-c-Myc monoclonal antibody conjugated to HRP was added at a dilution of 1:5000 for 1 hour. After washing, the bound FC5 was detected with tetramethylbenzidine (TMB)/hydrogen peroxide substrate system. The signal was measured at […] on a microtiter plate reader. FC5 concentrations in collected aliquots were determined from a standard curve constructed using known FC5 concentrations.

HCEC = assay: Uptake into human cerebromicrovascular endothelial cells (immunofluorescence); assay type: cell-based; conditions: data not shown; for effect on FC5 uptake into HCEC: 30 minutes preincubation
Protocol: The uptake of FC5 into HCEC was tested 15-90 minutes after adding 5 μg/ml of FC5 in the absence or presence of various pharmacological modulators of endocytosis. To visualize the intracellular distribution of FC5, cells were fixed, permeabilized and probed with the anti-c-myc antibody (1:100; 1 hour) followed by incubation with FITC-labeled anti-mouse IgG (1:250; 1 hour).

[1] = 5 μg/ml, 30 minutes pretreatment

## C[C@@H]1[C@H](O)[C@@H](C)/C=C/C=C/CC/C=C/C=C/C=C/C=C/C(O[C@H]2O[C@H](C)[C@@H](O)[C@H](N)[C@@H]2O)CC2O[C@](O)(CC(O)C(O)CCC(O)CC(O)CC(O)CC(=O)O[C@H]1C)CC(O)C2C(=O)O (stereo partly shown) [nystatin]
HCEC monolayers; [1]
  effect on FC5 transmigration across in vitro BBB model: None of the caveolae-mediated endocytosis inhibitors tested affected

## chondroitin sulfate C
HCEC monolayers; 10 μg/ml pre-incubation
  effect on FC5 transcytosis across the BBB in vitro: did not affect

## mannan
HCEC monolayers; mannan 1 mg/ml
  effect on FC5 transmigration: did not affect

## methyl-β-cyclodextrin
HCEC monolayers; methyl-β-cyclodextrin 5 mM, 30 minutes pretreatment
  effect on FC5 transmigration across in vitro BBB model: None of the caveolae-mediated endocytosis inhibitors tested affected

## O=CC[C@@H](O)[C@H](O)[C@H](O)CO [2-deoxyglucose]
HCEC monolayers; 5 mM sodium azide and 5 mM 2-deoxyglucose together, 30 min, glucose-free medium
  effect on FC5 transmigration: near-complete inhibition

## CCCC(=O)Nc1ncnc2c1ncn2[C@@H]1O[C@@H]2COP(=O)(O)O[C@H]2[C@H]1OC(=O)CCC [db-cAMP, dibutyryl-cAMP]
HCEC monolayers; db-cAMP 500 μM, 30 minutes pre-incubation
  effect on FC5 transcytosis across HCEC: not affected

## N=C(N)NC(=O)c1nc(Cl)c(N)nc1N [amiloride]
HCEC monolayers; amiloride 500 μM
  effect on transendothelial migration of FC5: no effect

## COC(=O)Nc1nc2ccc(C(=O)c3cccs3)cc2[nH]1 [nocodazole]
HCEC monolayers; 20 μM, 30 minutes pre-incubation
  effect on FC5 transcytosis: did not interfere

## holo-transferrin
HCEC; 100-fold excess of holo-transferrin
  effect on FC5 uptake: not reduced
HCEC monolayers; 100-fold excess (1 mg/ml) of holo-transferrin, 10 μg/ml FC5, 30 minutes
  effect on FC5 transendothelial transport: not reduced

## protamine sulfate
HCEC; protamine sulfate 40 μg/ml
  effect on FC5 uptake into HCEC: Neither compound affected
HCEC monolayers; protamine sulfate 40 μg/ml
  effect on FC5 transport across the in vitro BBB model: Neither compound affected

## poly-L-lysine
HCEC; poly-L-lysine 300 μM
  effect on FC5 uptake into HCEC: Neither compound affected
HCEC monolayers; poly-L-lysine 300 μM
  effect on FC5 transport across the in vitro BBB model: Neither compound affected

## CN(C)CCCN1c2ccccc2Sc2ccc(Cl)cc21 [chlorpromazine]
HCEC monolayers; Homo sapiens, HCEC, chlorpromazine 50 μg/ml, 30 minutes pretreatment, read-out: inhibition of FC5 transmigration across in vitro BBB model
  inhibition at 50 µg/mL: 52%

## CC[C@@]1([C@@H]2O[C@@H]([C@H]3O[C@@](O)(CO)[C@H](C)C[C@@H]3C)C[C@@H]2C)CC[C@H]([C@]2(C)CC[C@]3(C[C@H](O)[C@@H](C)[C@@H]([C@@H](C)[C@@H](OC)[C@H](C)C(=O)O)O3)O2)O1 [Monensin, monensin]
HCEC monolayers; Homo sapiens, HCEC, 0.5 h, monensin 25 μM, 30 minutes, 10 μg/ml FC5, read-out: inhibition of FC5 transcytosis across HCEC
  inhibition at 25 µM: 34%

## CN(C)CCCn1cc(C2=C(c3c[nH]c4ccccc34)C(=O)NC2=O)c2ccccc21 [BIM-1, bisindolyl-maleimide-1]
HCEC monolayers; BIM-1 5 μM, 30 minutes pre-incubation
  reduction of FC5 transcytosis across HCEC: 25%

## O=c1c(-c2ccc(O)cc2)coc2cc(O)cc(O)c12 [genistein]
HCEC monolayers; genistein 50 μM, 30 minutes pre-incubation
  effect on FC5 transcytosis across HCEC: not affected

## heparin sulfate
HCEC monolayers; heparin sulfate 50 U/ml pre-incubation
  effect on FC5 transcytosis across the BBB in vitro: did not affect

## C[C@@H]1O[C@@H](O[C@H]2C[C@@H](O)[C@]3(CO)[C@H]4[C@H](O)C[C@]5(C)[C@@H](C6=CC(=O)OC6)CC[C@]5(O)[C@@H]4CC[C@]3(O)C2)[C@H](O)[C@H](O)[C@H]1O [ouabain]
HCEC monolayers; ouabain 1 μM, 30 minutes pretreatment
  reduction of FC5 transport across HCEC: 40%

## chondroitin sulfate A
HCEC monolayers; 10 μg/ml pre-incubation
  effect on FC5 transcytosis across the BBB in vitro: did not affect

## CCCCC[C@@H](O)[C@H]1C(=O)O[C@H](C)[C@@H](O)/C=C/C=C/C=C/C=C/C=C(\C)[C@@H](O)C[C@H](O)C[C@H](O)C[C@H](O)C[C@H](O)C[C@H](O)C[C@@H]1O [filipin]
HCEC monolayers; [1]
  effect on FC5 transmigration across in vitro BBB model: None of the caveolae-mediated endocytosis inhibitors tested affected
